These results are taken from the supplement of paper PMC8497498.

The subject of experiment [1] is Plasmodium vivax liver stage (primary human hepatocyte culture). The experiment in a line: maximum inhibition of schizont net growth area; higher = more active. The method, then: (§1)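 Dose-response of P. vivax liver stages in primary human hepatocytes, with 8 points (10 uM-[…], v1) or 12 points in duplicate (50 uM-280 pM, v2). Read-out is high-content imaging of schizont net growth area, hypnozoite quantity and hepatic nuclei. EC50 and CC20 (20% nuclei loss) were fitted in CDD Vault from the highest-quality independent experiment; toxic-dose bell-shaped points were masked. '>' marks the highest concentration with less than 50% activity, and ND means a non-sigmoidal curve.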

For experiment [2] the test system is unchanged. On the procedure:
as §1

Experiment [3] relates to primary human hepatocytes. The experiment in a line: CC20 hepatic nuclei (20% reduction); higher = less toxic. On the procedure:
as §1

[4] abbreviates: P. vivax isolate: Pv590, hepatocyte lot: UBV, assay mode: Radical Cure, 8-day (treatment from day 5 post-infection).
Setting [5] is: P. vivax isolate: Pv657, hepatocyte lot: BGW, assay mode: Radical Cure, 8-day (treatment from day 5 post-infection).
Where [6] appears, read: P. vivax isolate: IVS16-38, hepatocyte lot: PDC, assay mode: Prophylactic, 6-day.
The mark [7] stands for this setting: P. vivax isolate: Pv668, hepatocyte lot: BGW, assay mode: Radical Cure, 8-day (treatment from day 5 post-infection).
Setting [8] is: P. vivax isolate: Pv458, hepatocyte lot: UBV, assay mode: Radical Cure, 8-day (treatment from day 5 post-infection).
The mark [9] stands for this setting: P. vivax isolate: Pv395, hepatocyte lot: UBV, assay mode: Prophylactic, 6-day.
[10] abbreviates: P. vivax isolate: Pv728, hepatocyte lot: BGW, assay mode: Radical Cure, 8-day (treatment from day 5 post-infection).

For the molecule `COc1ccc(-c2c(C)nn3c(N)c(C#N)cnc23)cc1OC`, the maximum inhibition in experiment [1] (setting [4]) was 95.7%. Moreover, in experiment [2] (setting [4]), the EC50 hypnozoite quantity is above 50 µM and the “EC50 schizont net growth area” value came out at 0.599 µM. In addition, the CC20 hepatic nuclei in experiment [3] (setting [4]) was above 50 µM.
In the case of `COc1ccc(-c2nn(C(C)C)c3ncnc(N)c23)cc1OC`, the maximum inhibition in experiment [1] (setting [5]) worked out at 71.3%. Further, in experiment [2] (setting [5]), the EC50 hypnozoite quantity was above 50 µM and the “EC50 schizont net growth area” value was determined as 0.294 µM. The molecule also returned a CC20 hepatic nuclei in experiment [3] (setting [5]) above 50 µM.
In the case of `COc1ccc(-c2cnc3ccc(NCc4ccc(S(N)(=O)=O)cc4)nn23)cn1`, the maximum inhibition in experiment [1] (setting [5]) worked out at 79.2%. The molecule also yielded an EC50 hypnozoite quantity in experiment [2] (setting [5]) above 50 µM. Also, the CC20 hepatic nuclei in experiment [3] (setting [5]) was above 50 µM.
For the molecule `COc1ccccc1CNC(=O)CCn1c(=O)[nH]c2ccccc2c1=O`, the maximum inhibition in experiment [1] (setting [6]) came out at 98.3%. In experiment [2] (setting [6]), the EC50 hypnozoite quantity is above 10 µM and the “EC50 schizont net growth area” value stood at 0.68 µM. In experiment [3] (setting [6]), this molecule came in with a CC20 hepatic nuclei above 10 µM.
`Cc1sc2ncnc(Sc3nc4ccccc4[nH]3)c2c1C`: in experiment [1] (setting [4]), the maximum inhibition was found to be 92.9%. Further, in experiment [2] (setting [4]), the EC50 hypnozoite quantity is above 50 µM and the “EC50 schizont net growth area” value amounted to 1.62 µM. The CC20 hepatic nuclei in experiment [3] (setting [4]) was determined as 46.9 µM.
For the molecule `N#CC(C#N)=NNc1cc(Cl)cc(Cl)c1`, the maximum inhibition in experiment [1] (setting [7]) came to 85.1%. Also, in experiment [2] (setting [7]), the EC50 hypnozoite quantity was above 50 µM and the “EC50 schizont net growth area” value amounted to 4.04 µM. In addition, in experiment [3] (setting [7]), the CC20 hepatic nuclei came out at 5.21 µM.
In the same order, the values of `O=S1(=O)C=CC2ON=C(c3ccc(Cl)cc3)C21` (stereo not given) are 103%, above 50 µM, above 1.85 µM and 37.6 µM.
For `O=S1(=O)C=CC2ON=C(c3c(Cl)cccc3Cl)C21` (stereo not given), the maximum inhibition in experiment [1] (setting [7]) came to 94.8%. The molecule further had an EC50 hypnozoite quantity in experiment [2] (setting [7]) above 50 µM. The molecule further had a CC20 hepatic nuclei in experiment [3] (setting [7]) of 45.7 µM.
On to `O=c1c(Cl)c(Cl)cnn1-c1nc2ccccc2[nH]1`, for which the maximum inhibition in experiment [1] (setting [8]) turned out to be 89.7%. Also, the EC50 hypnozoite quantity in experiment [2] (setting [8]) is above 3.33 µM. Further, in experiment [3] (setting [8]), the CC20 hepatic nuclei was above 3.33 µM.
With `O=C(NCCN1CCCC1)c1cc(NCCCCN2CCC(F)(F)CC2)nc2ccc(Cl)cc12`, the maximum inhibition in experiment [1] (setting [5]) turned out to be 103%. Further, in experiment [2] (setting [5]), the EC50 hypnozoite quantity was above 50 µM and the “EC50 schizont net growth area” value was 0.00316 µM. The molecule also gave a CC20 hepatic nuclei in experiment [3] (setting [5]) above 50 µM.
For `O=C(Nc1nc(-c2ccccn2)cs1)C1CC1c1ccccc1F` (stereo not given), the maximum inhibition in experiment [1] (setting [9]) was 94.3%. Besides, the EC50 hypnozoite quantity in experiment [2] (setting [9]) is above 10 µM. Besides, in experiment [3] (setting [9]), the CC20 hepatic nuclei is above 10 µM.
As to `N#Cc1ccc(-c2cnc(N)c(-c3ccc(C(N)=O)cc3)n2)cc1`, the maximum inhibition in experiment [1] (setting [5]) amounted to 85.1%. For the same molecule, in experiment [2] (setting [5]), the EC50 hypnozoite quantity was above 50 µM and the “EC50 schizont net growth area” value was found to be 0.0012 µM. Further, the CC20 hepatic nuclei in experiment [3] (setting [5]) was above 50 µM.
Take `Nc1ncc(-c2ccc(C(F)(F)F)nc2)cc1-c1ccc(C(F)(F)F)nc1`: in experiment [1] (setting [5]), the maximum inhibition came to 87.5%. In experiment [2] (setting [5]), the EC50 hypnozoite quantity was above 50 µM and the “EC50 schizont net growth area” value worked out at 0.19 µM. In experiment [3] (setting [5]), the CC20 hepatic nuclei was above 50 µM.
Take `Nc1ncc(-c2cn[nH]c2)cc1-c1nc2cc(Cl)cnc2[nH]1`: in experiment [1] (setting [5]), the maximum inhibition was 63.7%. Further, in experiment [2] (setting [5]), the EC50 hypnozoite quantity is above 50 µM and the “EC50 schizont net growth area” value was above 50 µM. This molecule also yielded a CC20 hepatic nuclei in experiment [3] (setting [5]) above 50 µM.
On to `OCc1ccc(-c2cncc(Nc3cccc(Cl)c3)c2)cc1`, for which the maximum inhibition in experiment [1] (setting [4]) was determined as 94.1%. In experiment [2] (setting [4]), the EC50 hypnozoite quantity is above 50 µM and the “EC50 schizont net growth area” value stood at 2.54 µM. Moreover, the CC20 hepatic nuclei in experiment [3] (setting [4]) is above 16.7 µM.
On to `Oc1c(C(c2ccncc2)N2CCCC2)ccc2cccnc12` (stereo not given), for which the maximum inhibition in experiment [1] (setting [7]) was found to be 80.2%. Moreover, the EC50 hypnozoite quantity in experiment [2] (setting [7]) is above 50 µM. Moreover, the CC20 hepatic nuclei in experiment [3] (setting [7]) is above 50 µM.
On to `O=C(Nc1ccc([N+](=O)[O-])cc1)Nc1cc(OCC(F)(F)F)cc(OCC(F)(F)F)c1`, for which the maximum inhibition in experiment [1] (setting [8]) turned out to be 75.3%. In addition, in experiment [2] (setting [8]), the EC50 hypnozoite quantity was above 10 µM and the “EC50 schizont net growth area” value was 3.33 µM. The molecule also yielded a CC20 hepatic nuclei in experiment [3] (setting [8]) above 3.33 µM.
As to `N#CC(c1ccc(Br)cc1)c1ccc2c(C(F)(F)F)cc(C(F)(F)F)nc2n1` (stereo not given), in experiment [1] (setting [8]), the maximum inhibition is 86%. Besides, in experiment [2] (setting [8]), the EC50 hypnozoite quantity came to 0.957 µM and the “EC50 schizont net growth area” value amounted to 1.24 µM. Further, in experiment [3] (setting [8]), the CC20 hepatic nuclei was 5.44 µM.
In the case of `CC(C)(ON=C(C(=O)NC1C(=O)N2C(C(=O)[O-])=C(C[n+]3ccccc3)CSC12)c1csc(N)n1)C(=O)O` (stereo not given) [Ceftazidime pentahydrate], the maximum inhibition in experiment [1] (setting [10]) stood at 47.9%. Further, in experiment [2] (setting [10]), the EC50 hypnozoite quantity was above 10 µM and the “EC50 schizont net growth area” value was above 10 µM.
